Test [1] in a line: Cell based assays (toxicity, unspecified).
In test [2] the test system is chicken pre-B cell line DT40. As to the kind of experiment: Thymidine incorporation toxicity assay in isogenic DT40 cells with or without KU70, RAD52, RAD54. The format is cell-based. The conditions noted are these: for effect of loss of KU70 on toxicity: DT40 with or without KU70; for effect of loss of homologous recombination (RAD52 or RAD54) on toxicity: DT40 with or without RAD52 or RAD54. As for the experimental part:
Cell lines were grown at 37° C. in an atmosphere of 5% CO2. The chicken pre-B cell line DT40 and its derivatives (Bezzubova, et al., Cell 89: 185–93 (1997), Takata, et al., EMBO Journal 17: 5497–508 (1998), Yamaguchi-Iwai, et al., Molecular & Cellular Biology 18: 6430–5 (1998)) were grown in RPMI containing 10% fetal calf serum and 1% chicken serum. The remaining cell lines were grown in DMEM with 10% fetal calf serum.
Toxicity assays in mammalian cell lines were performed using tritiated thymidine incorporation as a measure of the number of viable cells. […] Drug toxicity was measured as follows:
(§1) Cells were plated at a density of 500 cells per well in opaque 96 well plates (Packard) in a volume of 135 μL per well of the appropriate media. The plates were incubated overnight to allow cell adherence. Seven two-fold dilutions of the test compounds were added in a volume of 15 μL per well in triplicate, and 15 μL of media containing an appropriate concentration of DMSO was added to control wells in triplicate. Plates were incubated at 37° C. for 96 hours. The media was then replaced with 100 μL per well of the appropriate media containing 2 μCi/mL of (methyl-^3H) thymidine (Amersham Pharmacia Biotech), then plates were incubated for a further 24 hours at 37° C. Cells were washed three times with PBS, then 100 μL per well of scintillant was added (Microscint 20, Packard), and sealed plates were counted in a microplate reader (Packard Topcount). For suspension chicken cells, (methyl-^3H) thymidine was added directly to the drug-containing media at a concentration of 20 μCi/mL (comprising one tenth of the media volume) and incubated overnight. The suspension cells were transferred to a UniFilter GF/C plate (Packard) and washed with PBS in a plate washer (Packard). After drying, 25 μL per well of scintillant (Microscint 20, Packard) was added, and sealed plates were counted. Toxicity is expressed as a percentage of the control counts. For experiments involving shorter exposures to compounds, cells were grown in the presence of compound for the appropriate time, then the media was replaced with fresh drug-free media, and incubation continued for the remainder of 96 hours, followed by the normal tritiated thymidine uptake and washing protocol.
In the case of Topo II poisons, the drug/enzyme complex directly produces a DSB, which could occur in all phases of the cell cycle and can apparently be repaired by either DSB repair pathway. Topo I poisons, however, create a single strand break that is converted to a DSB by passage of a replication fork during ongoing DNA synthesis (D'Arpa, et al., Cancer Research 50: 6919–24 (1990), Hsiang, et al., Cancer Research 49: 5077–82 (1989), Holm, et al., Cancer Research 49: 6365–8 (1989)). It has been proposed that DSB's created in this context can only be repaired by homologous recombination, additionally requiring proteins involved in sister chromatid cohesion (Castano, et al., Genes & Development 10: 2564–76 (1996), Castano, et al., Nucleic Acids Research 24: 2404–10 (1996), Walowsky, et al., Journal of Biological Chemistry 274: 7302–8 (1999)).
On the technique in general: Uptake of a labelled nucleoside into DNA is a usual measure of proliferation.

In test [3] the test system is yeast lacking Ku70 (encoded by the HDF1 gene). Kind of test: Yeast toxicity in NHEJ-deficient strain lacking Ku70 (hdf1). The format is cell-based. As for the experimental part:
Yeast toxicity assays were performed essentially as follows: Exponentially growing cultures of the appropriate strains were diluted in synthetic complete media to a concentration of 7.4×10^4 cells/mL, and aliquots (135 μL) were transferred to each well of clear flat-bottomed 96 well plates. Compounds were added in duplicate or triplicate as 15 μL of the appropriate dilution in 5% DMSO. A 15 μL portion of 5% DMSO was added to control wells. Assay plates were incubated at 30° C. for approximately seven generations growth in solvent control wells (as monitored by OD660, typically 21–24 hours), then the OD660 of the cultures was measured in a microplate reader (Bio-Tek). Cell growth (OD660) in treated wells was plotted as a percentage of the growth in at least four averaged solvent control wells for the same strain. Camptothecin sodium salt (camptothecin Na) was the agent used in all yeast assays as standard.
The sensitivity of yeast lacking Ku70 (encoded by the HDF1 gene) to camptothecin Na, compounds Ia and IIa, has now been examined. […] Thus the NHEJ pathway is not important for the repair of lesions induced by these compounds in yeast.

The test system of test [4] is Rat1a fibroblasts. Kind of test: Effect of exposure time on toxicity in Rat1a fibroblasts. The conditions noted are these: for toxicity with a two hour exposure: additional experiments; for toxicity of four hour versus six hour exposure: total incubation 96 hours. Format: cell-based, rat. Here is the method:
as §1

The test system of test [5] is Rat1a fibroblasts. Kind of test: Effect of co-treatment with hydroxyurea (HU) on toxicity in Rat1a fibroblasts. The format is cell-based, rat. The conditions noted are these: six-hour exposure; 0, 0.25, 0.5 or 1 mM HU. As for the experimental part: FIG. 6 illustrates the effect of exposure time and hydroxyurea on the toxicity of compound Ia and compound IIa. […] Rat1a fibroblasts were exposed to compound during growth for either four or six hours, the media was changed, then cells were grown for an appropriate period such that total incubation time was 96 hours, and processed as described in the Example below. […] The bar graph insets for each graph show growth inhibition by HU alone.
as §1
A six-hour exposure was used to test whether the toxicity of the same set of compounds is dependent on ongoing DNA synthesis. […] Thus, in contrast to camptothecin and topotecan, compounds Ia and IIa show no marked time dependency for toxicity (FIG. 6A) and are not inhibited by HU (FIG. 6B), indicating critical mechanistic differences between these compounds and camptothecin.

Take `O=c1c(Cl)c(Cl)cnn1CCCl` [compound IIa]: in test [1], the “IC50 compared to camptothecin” value was “higher IC50's”. In addition, in test [2], the “effect of loss of KU70 on toxicity” value is recorded as “unaffected by loss of KU70” and the “effect of loss of homologous recombination (RAD52 or RAD54) on toxicity” value is “only marginally affected”. Further, the “sensitivity of NHEJ-deficient (hdf1) mutant compared with wild-type” value in test [3] was “indistinguishable from that of wild-type”. Further, in test [4], the “effectiveness of 96 hour exposure relative to four hour exposure” value is “three- to five-fold”, the “toxicity with a two hour exposure” value is given as “nearly full toxicity” and the “toxicity of four hour versus six hour exposure” value was “equally effective”. Further, in test [5], the “change of toxicity caused by HU co-treatment” value is on record as “slight accentuation of toxicity” and the “inhibition of toxicity by co-treatment with HU” value is recorded as “not inhibited by co-treatment with HU”.
`O=C(CCl)Nc1ccc(C(=O)N/N=C/c2ccc(Cl)cc2)cc1` [compound Ia]: in test [1], the “IC50 compared to camptothecin” value was “higher IC50's”. In addition, in test [2], the “effect of loss of KU70 on toxicity” value was “unaffected by loss of KU70” and the “effect of loss of homologous recombination (RAD52 or RAD54) on toxicity” value was “only marginally affected”. Further, the “sensitivity of NHEJ-deficient (hdf1) mutant compared with wild-type” value in test [3] is recorded as “indistinguishable from that of wild-type”. Also, in test [4], the “effectiveness of 96 hour exposure relative to four hour exposure” value is on record as “three- to five-fold”, the “toxicity with a two hour exposure” value is listed as “nearly full toxicity” and the “toxicity of four hour versus six hour exposure” value is “equally effective”. Moreover, in test [5], the “change of toxicity caused by HU co-treatment” value is on record as “slight accentuation of toxicity” and the “inhibition of toxicity by co-treatment with HU” value is reported as “not inhibited by co-treatment with HU”.

Values taken from patent US7173063B1, “Topoisomerase poisons for the treatment of proliferative disorders” (Fred Hutchinson Cancer Research Center, priority 2000, dated 2007).
